Experimental data reported in patent US10201533B2, “Substituted quinolizine derivatives useful as HIV integrase inhibitors” (priority 2013, dated 2019).
pIC50: −log10 of the molar value. Like-named read-outs stand apart in the source and are kept apart here.

Test system: HIV-1 (NL4-3 strain)
Test: microbe, parasite or virus in culture
Type: cell-based
Details: MT4-GFP cells infected with HIV-1 NL4-3, IP or IC50 from 4-parameter dose response curve
[1] = 100% normal human serum (NHS), read-out: WILD TYPE CELL ASSAY Viking IP (100% NHS)
[2] = Human immunodeficiency virus 1, NL43, 0% normal human serum (NHS), read-out: WILD TYPE CELL ASSAY Viking IP (0% NHS)
[3] = Human immunodeficiency virus 1, NL43, 100% normal human serum (NHS), read-out: WILD TYPE CELL ASSAY Viking IP (100% NHS)
[4] = 0% normal human serum (NHS), read-out: WILD TYPE CELL ASSAY Viking IP (0% NHS)

C[C@]12CCCCO[C@H]1Cn1cc(C(=O)NCc3cccc(Cl)c3F)c(=O)c(O)c1C2=O [Compound 37]
pIC50 [1]: 7.10 | pIC50 [2]: 8.82

C[C@@]12CCCO[C@@H]1Cn1cc(C(=O)NCc3ccc(F)c(F)c3F)c(=O)c(O)c1C2=O (single isomer, unassigned) [Compound 17]
pIC50 [2]: 8.54 | pIC50 [3]: 6.93

COCCC[C@@]1(C)C(=O)c2c(O)c(=O)c(C(=O)NCc3ccccc3F)cn2C[C@@H]1OC [Compound 89]
pIC50 [4]: 8.68 | pIC50 [1]: 7.14

C[C@@]12CC=CCO[C@@H]1Cn1cc(C(=O)NCc3ccc(F)cc3F)c(=O)c(O)c1C2=O [Compound 48]
pIC50 [4]: 8.77 | pIC50 [1]: 6.04

COCCC[C@@]1(C)C(=O)c2c(O)c(=O)c(C(=O)NCc3c(F)cc(F)cc3F)cn2C[C@@H]1OC [Compound 92]
pIC50 [2]: 8.89 | pIC50 [3]: 7.23

COC12CCCC1(C)C(=O)c1c(O)c(=O)c(C(=O)NCc3ccc(F)cc3)cn1C2 (centres unmarked) [Compound 106]
pIC50 [2]: 8.48 | pIC50 [3]: 5.48

COC[C@]1(C)C(=O)c2c(O)c(=O)c(C(=O)NCc3ccc(F)cc3F)cn2C[C@@H]1OC [Compound 55]
pIC50 [4]: 8.09 | pIC50 [1]: < 5.08

C[C@@]12CCCCC[C@@]1(O)Cn1cc(C(=O)NCc3ccc(F)cc3F)c(=O)c(O)c1C2=O [Compound 99]
pIC50 [2]: 8.43 | pIC50 [3]: 6.21

COCC[C@]1(C)C(=O)c2c(O)c(=O)c(C(=O)NCc3c(F)cccc3F)cn2C[C@@H]1OC [Compound 73]
pIC50 [4]: 9.00 | pIC50 [1]: 7.66

COCCC[C@]1(C)C(=O)c2c(O)c(=O)c(C(=O)NCc3cccc(Cl)c3F)cn2C[C@@H]1OC [Compound 79]
pIC50 [4]: 9.00 | pIC50 [1]: 6.18

C[C@@]12CCCCO[C@@H]1Cn1cc(C(=O)NCc3ccc(F)cc3F)c(=O)c(O)c1C2=O (single isomer, unassigned) [Compound 39]
pIC50 [1]: 7.48 | pIC50 [2]: 9.10

COC[C@@]1(C)C(=O)c2c(O)c(=O)c(C(=O)NCc3ccc(F)cc3F)cn2C[C@@H]1OC [Compound 57]
pIC50 [4]: 8.33 | pIC50 [1]: 5.46

COCC[C@]1(C)C(=O)c2c(O)c(=O)c(C(=O)NCc3ccccc3F)cn2C[C@@H]1OC [Compound 68]
pIC50 [1]: 6.22 | pIC50 [2]: 8.74

COCC[C@@]1(C)C(=O)c2c(O)c(=O)c(C(=O)NCc3c(F)cccc3F)cn2C[C@@H]1OC [Compound 70]
pIC50 [2]: 8.72 | pIC50 [3]: 7.10

COCCO[C@]12CCCC[C@@]1(C)C(=O)c1c(O)c(=O)c(C(=O)NCc3ccc(F)cc3F)cn1C2 [Compound 115]
pIC50 [2]: 8.85 | pIC50 [3]: 6.65

COCO[C@@]12CCCC[C@]1(C)C(=O)c1c(O)c(=O)c(C(=O)NCc3ccc(F)cc3F)cn1C2 [Compound 110]
pIC50 [2]: 8.68 | pIC50 [3]: 6.85

C[C@]12CCCO[C@H]1Cn1cc(C(=O)NCc3c(F)cccc3F)c(=O)c(O)c1C2=O (single isomer, unassigned) [Compound 22]
pIC50 [2]: 8.57 | pIC50 [3]: 6.60

C[C@]12CCCO[C@H]1Cn1cc(C(=O)NCc3cc(F)c(F)c(F)c3)c(=O)c(O)c1C2=O (single isomer, unassigned) [Compound 28]
pIC50 [2]: 8.36 | pIC50 [3]: < 5.08

C[C@]12CCCO[C@@H]1Cn1cc(C(=O)NCc3ccc(F)cc3F)c(=O)c(O)c1C2=O (single isomer, unassigned) [Compound 34]
pIC50 [4]: 8.77 | pIC50 [1]: 5.82

C[C@]12CCCCO[C@H]1Cn1cc(C(=O)NCc3cccc(Cl)c3F)c(=O)c(O)c1C2=O [Compound 38]
pIC50 [4]: 8.74 | pIC50 [1]: 5.80

COCCC[C@]1(C)C(=O)c2c(O)c(=O)c(C(=O)NCc3c(F)cccc3F)cn2C[C@@H]1OC [Compound 82]
pIC50 [4]: 8.39 | pIC50 [1]: 6.80

COCCC[C@@]1(C)C(=O)c2c(O)c(=O)c(C(=O)NCc3cccc(Cl)c3F)cn2C[C@@H]1OC [Compound 80]
pIC50 [1]: 7.00 | pIC50 [2]: 8.96

COCCC[C@@]1(C)C(=O)c2c(O)c(=O)c(C(=O)NCc3ccccc3F)cn2C[C@@H]1OC [Compound 88]
pIC50 [2]: 8.64 | pIC50 [3]: 7.20

C[C@]12CCCO[C@H]1Cn1cc(C(=O)NCc3ccc(F)c(Br)c3)c(=O)c(O)c1C2=O (single isomer, unassigned) [Compound 25]
pIC50 [2]: 8.38 | pIC50 [3]: < 5.08

Cc1nc(CNC(=O)c2cn3c(c(O)c2=O)C(=O)[C@@]2(C)CCCO[C@H]2C3)sc1C [Compound 31]
pIC50 [2]: 7.32 | pIC50 [3]: < 5.08

C[C@]12CC=CCO[C@@H]1Cn1cc(C(=O)NCc3ccc(F)cc3F)c(=O)c(O)c1C2=O [Compound 49]
pIC50 [1]: 5.39 | pIC50 [2]: 8.49

C[C@]12CCCCC[C@@]1(O)Cn1cc(C(=O)NCc3ccc(F)cc3F)c(=O)c(O)c1C2=O [Compound 101]
pIC50 [2]: 8.68 | pIC50 [3]: 6.98

C[C@]12CCCCO[C@@H]1Cn1cc(C(=O)NCc3cccc(Cl)c3F)c(=O)c(O)c1C2=O (single isomer, unassigned) [Compound 46]
pIC50 [4]: 8.89 | pIC50 [1]: 6.34

COCCC[C@]1(C)C(=O)c2c(O)c(=O)c(C(=O)NCc3ccccc3F)cn2C[C@@H]1OC [Compound 86]
pIC50 [4]: 8.89 | pIC50 [1]: 7.74

C[C@]12CCCN[C@H]1Cn1cc(C(=O)NCc3ccc(F)cc3F)c(=O)c(O)c1C2=O [Compound 122]
pIC50 [4]: 8.48 | pIC50 [1]: 7.46

COCCO[C@@]12CCCC[C@]1(C)C(=O)c1c(O)c(=O)c(C(=O)NCc3ccc(F)cc3F)cn1C2 [Compound 114]
pIC50 [2]: 8.72 | pIC50 [3]: 6.86

COCC[C@@]1(C)C(=O)c2c(O)c(=O)c(C(=O)NCc3cccc(Cl)c3F)cn2C[C@@H]1OC [Compound 63]
pIC50 [4]: 9.05 | pIC50 [1]: 6.60

COC1(C)CCn2cc(C(=O)NCc3ccc(F)cc3F)c(=O)c(O)c2C1=O (centres unmarked) [Compound 52]
pIC50 [4]: 8.47 | pIC50 [1]: < 5.08

C[C@@]12CC=CCO[C@@H]1Cn1cc(C(=O)NCc3ccc(F)cc3F)c(=O)c(O)c1C2=O [Compound 47]
pIC50 [1]: 7.15 | pIC50 [2]: 8.89

COC1(C)CCn2cc(C(=O)NCc3ccc(F)cc3F)c(=O)c(O)c2C1=O (centres unmarked) [Compound 51]
pIC50 [1]: 5.66 | pIC50 [2]: 8.44

CC12CCCC1(O)Cn1cc(C(=O)NCc3ccc(F)cc3F)c(=O)c(O)c1C2=O (centres unmarked) [Compound 104]
pIC50 [2]: 8.44 | pIC50 [3]: 6.46

C[C@]12CCCO[C@H]1Cn1cc(C(=O)NCc3cccc(Cl)c3F)c(=O)c(O)c1C2=O (single isomer, unassigned) [Compound 26]
pIC50 [2]: 8.96 | pIC50 [3]: 5.59

COCCC[C@]1(C)C(=O)c2c(O)c(=O)c(C(=O)NCc3c(F)cc(F)cc3F)cn2C[C@@H]1OC [Compound 90]
pIC50 [4]: 9.10 | pIC50 [1]: 7.89

C[C@]12CCCO[C@H]1Cn1cc(C(=O)NCc3ccc(F)cc3F)c(=O)c(O)c1C2=O [Compound 7]
pIC50 [1]: 6.81 | pIC50 [2]: 8.66

COCCC[C@]1(C)C(=O)c2c(O)c(=O)c(C(=O)NCc3c(F)cccc3F)cn2C[C@@H]1OC [Compound 83]
pIC50 [4]: 9.05 | pIC50 [1]: 7.72

COCO[C@]12CCCC[C@@]1(C)C(=O)c1c(O)c(=O)c(C(=O)NCc3ccc(F)cc3F)cn1C2 [Compound 111]
pIC50 [2]: 8.52 | pIC50 [3]: 6.07

COC12CCCC1(C)C(=O)c1c(O)c(=O)c(C(=O)NCc3ccc(F)c(F)c3F)cn1C2 (centres unmarked) [Compound 107]
pIC50 [2]: 8.24 | pIC50 [3]: 5.31

COC[C@@]1(C)C(=O)c2c(O)c(=O)c(C(=O)NCc3ccc(F)cc3F)cn2C[C@@H]1OC [Compound 56]
pIC50 [1]: 6.47 | pIC50 [2]: 8.47

CO[C@@]12CCCCC[C@]1(C)C(=O)c1c(O)c(=O)c(C(=O)NCc3ccc(F)cc3F)cn1C2 [Compound 118]
pIC50 [2]: 8.85 | pIC50 [3]: 6.06

Cc1c(F)ccc(CNC(=O)c2cn3c(c(O)c2=O)C(=O)[C@@]2(C)CCCO[C@H]2C3)c1F (single isomer, unassigned) [Compound 27]
pIC50 [2]: 8.70 | pIC50 [3]: < 5.08

COCCC[C@@]1(C)C(=O)c2c(O)c(=O)c(C(=O)NCc3cccc(Cl)c3F)cn2C[C@@H]1OC [Compound 81]
pIC50 [4]: 9.00 | pIC50 [1]: 6.53

COC12CCCC1(C)C(=O)c1c(O)c(=O)c(C(=O)NCc3ccc(F)cc3F)cn1C2 (centres unmarked) [Compound 105]
pIC50 [2]: 8.46 | pIC50 [3]: 5.64

C[C@]12CCCO[C@H]1Cn1cc(C(=O)NCc3c(F)cc(F)cc3F)c(=O)c(O)c1C2=O (single isomer, unassigned) [Compound 23]
pIC50 [2]: 8.82 | pIC50 [3]: 5.90

C[C@@]12COCO[C@H]1Cn1cc(C(=O)NCc3ccc(F)cc3F)c(=O)c(O)c1C2=O [Compound 11]
pIC50 [2]: 8.49 | pIC50 [3]: 6.32

O=C(NCc1ccc(F)cc1F)c1cn2c(c(O)c1=O)C(=O)C1CCOC1C2 (centres unmarked) [Compound 10]
pIC50 [2]: 7.18

COCC[C@]1(C)C(=O)c2c(O)c(=O)c(C(=O)NCc3cccc(Cl)c3F)cn2C[C@@H]1OC [Compound 64]
pIC50 [1]: 5.53 | pIC50 [2]: 9.05

COc1c2n(cc(-c3nnc(Cc4ccc(F)cc4F)s3)c1=O)CC(OC)C(C)(C)C2=O (centres unmarked) [Compound 6]
pIC50 [4]: 8.00

C[C@]12CCCC[C@@]1(O)Cn1cc(C(=O)NCc3ccc(F)cc3F)c(=O)c(O)c1C2=O [Compound 95]
pIC50 [2]: 8.66 | pIC50 [3]: 7.39

C[C@]12CCCN[C@H]1Cn1cc(C(=O)NCc3ccc(F)cc3F)c(=O)c(O)c1C2=O [Compound 121]
pIC50 [2]: 8.59 | pIC50 [3]: 7.21

COCC[C@@]1(C)C(=O)c2c(O)c(=O)c(C(=O)NCc3cccc(Cl)c3F)cn2C[C@@H]1OC [Compound 62]
pIC50 [2]: 9.05 | pIC50 [3]: 6.32

C[C@@]12CCCCO[C@@H]1Cn1cc(C(=O)NCc3c(F)cc(F)cc3F)c(=O)c(O)c1C2=O (single isomer, unassigned) [Compound 41]
pIC50 [1]: 7.47 | pIC50 [2]: 8.70
